Earlier results on one substance are cited in US10646430B2, “Topical compositions for stimulating adipogenesis and lipogenesis to reduce the signs of skin aging” (Kimberly-Clark Worldwide, Inc., priority 2014, dated 2020).

The data set deals with 3T3-L1 cells. The note with it: Kim et al., Nutr. Res. 32(6): 439-447.

In the case of Fucoidan, the “adipogenesis (literature)” value was “inhibit adipogenesis”.
